Patent US9637420B2, “Increased longevity of the nitrogen content of soil through improved liquid delivery formulations of urease inhibitors and/or nitrification inhibitors designed for urea and manure based fertilizers” (priority 2013, dated 2017)

Experiment: Degradation study of 2-chloro-6-trichloromethylpyridine/NBPT in DMSO at 50° C. by LC
Type: physicochemical
Protocol: A degradation study was performed using 2-chloro-6-trichloromethylpyridine/nBPT in DMSO
2-chloro-6-trichloromethylpyridine/NBPT=1/1 (w/w) mixture was dissolved in DMSO. LC's were done to analyze the content decrease along with time. All samples were sealed and protected under N2. All sample were stored 50° C.
C18 column, 255 nm. Retention time: 40 min. temperature: 30° C. 15 μL injection. Peak area percentage were calculated to analyze the concentration.

Row | Compound | content of active, LC peak area percentage (week 1) [peak area percentage] | content of active, LC peak area percentage (week 2) [peak area percentage] | content of active, LC peak area percentage (week 3) [peak area percentage] | content of active, LC peak area percentage (week 4) [peak area percentage] | content of active, LC peak area percentage (week 6) [peak area percentage] | content of active, LC peak area percentage (week 7) [peak area percentage] | content of active, LC peak area percentage (week 8) [peak area percentage] | content of active, LC peak area percentage (week 9) [peak area percentage] | content of active, LC peak area percentage (week 10) [peak area percentage] | content of active, LC peak area percentage (week 11) [peak area percentage] | content of active, LC peak area percentage (week 12) [peak area percentage] | content of active, LC peak area percentage (week 13) [peak area percentage] | content of active, LC peak area percentage (week 14) [peak area percentage] | content of active, LC peak area percentage (week 15) [peak area percentage] | content of active, LC peak area percentage (week 16) [peak area percentage] | content of active, LC peak area percentage (week 17) [peak area percentage] | content of active, LC peak area percentage (week 18) [peak area percentage]
1 | Clc1cccc(C(Cl)(Cl)Cl)n1 [2-chloro-6-trichloromethylpyridine] | 100 | 99 | 99.4 | 98.3 | 95.3 | 93.2 | 92.3 | 90.8 | 88 | 86.7 | 86.4 | 85 | 84.33 | 83.56 | 81.45 | 81 | 80.09
2 | CCCCNP(N)(N)=S [n-butylthiophosphoric triamide] | 100 | 99.6 | 98 | 97.6 | 96.5 | 95.3 | 94.7 | 93 | 92.2 | 92.1 | 91.7 | 91 | 90.88 | 90.01 | 99.55 | 89.06 | 88.6
